Assays:
[1] = test system: HBV replication in HepAD38 cells; test: Anti-HBV activity in HepAD38 cells, extracellular HBV DNA by QPCR; assay type: cell-based, HBV (genotype D, serotype ayw); conditions: Hepatitis B virus, HePAD38, 168 h, read-out: Anti-HBV EC50, HepAD38 cells, extracellular HBV DNA by QPCR, 7 days of incubation
How it was run: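 Seven-day compound exposure (30 μM down to 10 nM, half-log steps) after tetracycline withdrawal induced HBV replication in HepAD38 cells. Extracellular viral DNA measured by QPCR (copies/mL via standard curve), normalised to DMSO wells; EC50 from 4-parameter non-linear regression.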

[2] = In vitro cytotoxicity, MTT cell viability assay in HepG2 cells; assay type: cell-based; conditions: human, Cytotoxicity CC50
How it was run: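 CC50 values reflect loss of HepG2 viability after a 7-day exposure at 37 °C, 5% CO2. After 3-4 h with MTT, solubilized formazan was quantified at 492 nm relative to vehicle wells.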

Row | SMILES | EC50 [1] | CC50 at 7 days [2]
1 | NC(=O)c1cc(NC(=O)c2ccc(Cl)c(C(F)(F)C(=O)N3CCC(O)CC3)c2)ccc1F [Example 60, N-(3-carbamoyl-4-fluorophenyl)-4-chloro-3-(1,1-difluoro-2-(4-hydroxypiperidin-1-yl)-2-oxoethyl)benzamide] | 5 to 30 µM | > 30 µM
2 | COc1cc(NC(=O)c2ccc(Cl)c(C(F)(F)C(=O)N3CCC(O)CC3)c2)cc(F)c1F [Example 61, 4-chloro-3-(1,1-difluoro-2-(4-hydroxypiperidin-1-yl)-2-oxoethyl)-N-(3,4-difluoro-5-methoxyphenyl)benzamide] | 5 to 30 µM | > 30 µM
3 | Cc1cc(NC(=O)c2ccc(Br)c(C(F)(F)C(=O)N3CCC(O)CC3)c2)ccc1F [Example 62, 4-bromo-3-(1,1-difluoro-2-(4-hydroxypiperidin-1-yl)-2-oxoethyl)-N-(4-fluoro-3-methylphenyl)benzamide] | < 5 µM | > 30 µM
4 | Cc1cc(NC(=O)c2ccc(C(F)(F)C(=O)N3CCC(O)CC3)s2)ccc1F [Example 63, 5-(1,1-difluoro-2-(4-hydroxypiperidin-1-yl)-2-oxoethyl)-N-(4-fluoro-3-methylphenyl)thiophene-2-carboxamide] | > 30 µM | 5 to 30 µM
5 | COc1ccc(CNC(=O)C(F)(F)c2cc(C(=O)Nc3ccc(F)c(F)c3)ccc2F)c(OC)c1 [Example 64, N-(3,4-difluorophenyl)-3-(2-((2,4-dimethoxybenzyl)amino)-1,1-difluoro-2-oxoethyl)-4-fluorobenzamide] | 5 to 30 µM | 5 to 30 µM
6 | O=C(Nc1ccc(F)c(F)c1)c1ccc(F)c(C(F)(F)C(=O)NCc2ccc(O)cc2)c1 [Example 65, 3-(1,1-difluoro-2-((4-hydroxybenzyl)amino)-2-oxoethyl)-N-(3,4-difluorophenyl)-4-fluorobenzamide] | 5 to 30 µM | 5 to 30 µM
7 | O=C(Nc1ccc(F)c(F)c1)c1ccc(F)c(C(F)(F)C(=O)NCc2cccnc2)c1 [Example 66, 3-(1,1-difluoro-2-oxo-2-((pyridin-3-ylmethyl)amino)ethyl)-N-(3,4-difluorophenyl)-4-fluorobenzamide] | 5 to 30 µM | > 30 µM
8 | Cc1cc(NC(=O)c2cc(C(F)(F)C(=O)N3CCC(O)CC3)c(Cl)cc2C)ccc1F [Example 67, 4-chloro-5-(1,1-difluoro-2-(4-hydroxypiperidin-1-yl)-2-oxoethyl)-N-(4-fluoro-3-methylphenyl)-2-methylbenzamide] | < 5 µM | > 30 µM
9 | Cc1cc(NC(=O)c2ccc(F)c(C(F)(F)C(=O)NCc3nccs3)c2)ccc1F [Example 68, 3-(1,1-difluoro-2-oxo-2-((thiazol-2-ylmethyl)amino)ethyl)-4-fluoro-N-(4-fluoro-3-methylphenyl)benzamide] | < 5 µM | 5 to 30 µM
10 | Cc1cc(NC(=O)c2ccc(F)c(C(F)(F)C(=O)N3CCC(O)C(CO)C3)c2)ccc1F (stereo not drawn) [Example 69, 3-(1,1-difluoro-2-(4-hydroxy-3-(hydroxymethyl)piperidin-1-yl)-2-oxoethyl)-4-fluoro-N-(4-fluoro-3-methylphenyl)benzamide] | < 5 µM | > 30 µM
11 | Cc1cc(NC(=O)c2ccc(F)c(C(F)(F)C(=O)N3CCC(C)(O)CC3)c2)ccc1F [Example 70, 3-(1,1-difluoro-2-(4-hydroxy-4-methylpiperidin-1-yl)-2-oxoethyl)-4-fluoro-N-(4-fluoro-3-methylphenyl)benzamide] | < 5 µM | 5 to 30 µM
12 | Cc1cc(NC(=O)c2ccc(F)c(C(F)(F)C(=O)N3CCC(O)CC3(C)C)c2)ccc1F (stereo not drawn) [Example 71, 3-(1,1-difluoro-2-(4-hydroxy-2,2-dimethylpiperidin-1-yl)-2-oxoethyl)-4-fluoro-N-(4-fluoro-3-methylphenyl)benzamide] | 5 to 30 µM | > 30 µM
13 | Cc1cc(NC(=O)c2ccc(F)c(C(F)(F)C(=O)N3CCC(O)C(C)(C)C3)c2)ccc1F (stereo not drawn) [Example 72] | < 5 µM | 5 to 30 µM
14 | Cc1cc(NC(=O)c2ccc(F)c(C(F)(F)C(=O)N3CCC(F)(F)C3)c2)ccc1F [Example 73, 3-(2-(3,3-difluoropyrrolidin-1-yl)-1,1-difluoro-2-oxoethyl)-4-fluoro-N-(4-fluoro-3-methylphenyl)benzamide] | 5 to 30 µM | 5 to 30 µM
15 | Cc1cc(NC(=O)c2ccc(Cl)c(C(F)(F)C(=O)N3CC=CCC3)c2)ccc1F [Example 74, 4-chloro-3-(2-(3,6-dihydropyridin-1(2H)-yl)-1,1-difluoro-2-oxoethyl)-N-(4-fluoro-3-methylphenyl)benzamide] | < 5 µM | 5 to 30 µM
16 | Cc1cc(NC(=O)c2ccc(F)c(C(F)(F)C(=O)N3CCC(O)(CO)CC3)c2)ccc1F [Example 75, 3-(1,1-difluoro-2-(4-hydroxy-4-(hydroxymethyl)piperidin-1-yl)-2-oxoethyl)-4-fluoro-N-(4-fluoro-3-methylphenyl)benzamide] | < 5 µM | 5 to 30 µM
17 | Cc1cc(NC(=O)c2ccc(F)c(C(F)(F)C(=O)N3CCc4cn[nH]c4C3)c2)ccc1F [Example 76, 3-(1,1-difluoro-2-oxo-2-(1,4,5,7-tetrahydro-6H-pyrazolo[3,4-c]pyridin-6-yl)ethyl)-4-fluoro-N-(4-fluoro-3-methylphenyl)benzamide] | < 5 µM | 5 to 30 µM
18 | Cc1cc(NC(=O)c2ccc(F)c(C(F)(F)C(=O)N3CCC(O)C(F)(F)C3)c2)ccc1F (stereo not drawn) [Example 77, 3-(2-(3,3-difluoro-4-hydroxypiperidin-1-yl)-1,1-difluoro-2-oxoethyl)-4-fluoro-N-(4-fluoro-3-methylphenyl)benzamide] | < 5 µM | 5 to 30 µM
19 | Cc1cc(NC(=O)c2ccc(F)c(C(F)(F)C(=O)N3C4CCC3CC(O)C4)c2)ccc1F [Example 78, 3-(1,1-difluoro-2-((1R,3r,5S)-3-hydroxy-8-azabicyclo[3.2.1]octan-8-yl)-2-oxoethyl)-4-fluoro-N-(4-fluoro-3-methylphenyl)benzamide] | < 5 µM | 5 to 30 µM
20 | Cc1cc(NC(=O)c2ccc(F)c(C(F)(F)C(=O)N[C@H]3CC[C@H](O)CC3)c2)ccc1F [Example 79, 3-(1,1-difluoro-2-(((1r,4r)-4-hydroxycyclohexyl)amino)-2-oxoethyl)-4-fluoro-N-(4-fluoro-3-methylphenyl)benzamide] | 5 to 30 µM | > 30 µM
21 | CC(C)n1cc(NC(=O)c2ccc(F)c(C(F)(F)C(=O)N3CCC(O)CC3)c2)cn1 [Example 80, 3-(1,1-difluoro-2-(4-hydroxypiperidin-1-yl)-2-oxoethyl)-4-fluoro-N-(1-isopropyl-1H-pyrazol-4-yl)benzamide] | > 30 µM | > 30 µM
22 | Cc1cc(NC(=O)c2ccc(C(F)(F)C(=O)NC(C)(C)C)s2)ccc1F [Example 81, 5-(2-(tert-butylamino)-1,1-difluoro-2-oxoethyl)-N-(4-fluoro-3-methylphenyl)thiophene-2-carboxamide] | 5 to 30 µM | > 30 µM
23 | Cc1cc(NC(=O)c2ccc(C(F)(F)C(=O)NC(C)(C)CO)s2)ccc1F [Example 82, 5-(1,1-difluoro-2-((1-hydroxy-2-methylpropan-2-yl)amino)-2-oxoethyl)-N-(4-fluoro-3-methylphenyl)thiophene-2-carboxamide] | > 30 µM | > 30 µM
24 | Cc1cc(NC(=O)c2ccc(F)c(C(F)(F)C(=O)N[C@H]3CCCC[C@@H]3O)c2)ccc1F [Example 83, 3-(1,1-difluoro-2-(((1S,2S)-2-hydroxycyclohexyl)amino)-2-oxoethyl)-4-fluoro-N-(4-fluoro-3-methylphenyl)benzamide] | 5 to 30 µM | > 30 µM
25 | Cc1cc(NC(=O)c2ccc(F)c(C(F)(F)C(=O)N[C@@H]3CCOC3=O)c2)ccc1F [Example 84, (R)-3-(1,1-difluoro-2-oxo-2-((2-oxotetrahydrofuran-3-yl)amino)ethyl)-4-fluoro-N-(4-fluoro-3-methylphenyl)benzamide] | > 30 µM | > 30 µM
26 | O=C(Nc1ccc(F)c(Cl)c1)c1ccc(F)c(C(F)(F)C(=O)N2CCC(O)CC2)c1 [Example 85, N-(3-chloro-4-fluorophenyl)-3-(1,1-difluoro-2-(4-hydroxypiperidin-1-yl)-2-oxoethyl)-4-fluorobenzamide] | < 5 µM | 5 to 30 µM
27 | O=C(Nc1cc(F)c(F)c(F)c1)c1ccc(F)c(C(F)(F)C(=O)N2CCC(O)CC2)c1 [Example 86, 3-(1,1-difluoro-2-(4-hydroxypiperidin-1-yl)-2-oxoethyl)-4-fluoro-N-(3,4,5-trifluorophenyl)benzamide] | < 5 µM | 5 to 30 µM
28 | O=C(Nc1ccc(F)c(Br)c1)c1ccc(F)c(C(F)(F)C(=O)N2CCC(O)CC2)c1 [Example 87, N-(3-bromo-4-fluorophenyl)-3-(1,1-difluoro-2-(4-hydroxypiperidin-1-yl)-2-oxoethyl)-4-fluorobenzamide] | < 5 µM | 5 to 30 µM
29 | N#Cc1cc(NC(=O)c2ccc(F)c(C(F)(F)C(=O)N3CCC(O)CC3)c2)ccc1F [Example 88, N-(3-cyano-4-fluorophenyl)-3-(1,1-difluoro-2-(4-hydroxypiperidin-1-yl)-2-oxoethyl)-4-fluorobenzamide] | < 5 µM | > 30 µM
30 | Cn1cc(NC(=O)c2ccc(F)c(C(F)(F)C(=O)N3CCC(O)CC3)c2)cn1 [Example 89, 3-(1,1-difluoro-2-(4-hydroxypiperidin-1-yl)-2-oxoethyl)-4-fluoro-N-(1-methyl-1H-pyrazol-4-yl)benzamide] | > 30 µM | 5 to 30 µM

Reference: patent US11247965B2 (VenatoRx Pharmaceuticals, Inc., priority 2017, dated 2022)
